Assay type in all cases: cell-based
One test concerns S. aureus. In words: MIC S. aureus (standard MIC assay modified by inclusion of cyclodextrin). As to conditions: Staphylococcus aureus. Here is the method:
(§1) Compounds of the present invention were assayed for antibacterial activity against a range of pathogenic organisms (strains of S aureus, S pneumoniae, E faecalis, H influenzae and M catarrhalis) in a standard MIC assay modified by the inclusion of cyclodextrin, to assist with solubility.

Another test deals with H. influenzae. In words: MIC H. influenzae (standard MIC assay modified by inclusion of cyclodextrin). As to conditions: Haemophilus influenzae. Here is the method:
as §1

For test [1], the system named is S. aureus, S. pneumoniae, and E. faecalis. In words: MIC against some strains of gram positive pathogens. The protocol:
as §1

Another test has as its system S. pneumo. In words: MIC S. pneumo (standard MIC assay modified by inclusion of cyclodextrin). Particulars: Streptococcus pneumoniae. The protocol:
as §1

Test [2] deals with M catarrhalis and H. influenzae. In words: MIC against some strains of gram negative pathogens. As to conditions: Haemophilus influenzae. The protocol:
as §1

Setting [3] is: prior art thiophenes of U.S. Pat. No. 6,320,051.

Molecules are shown by their SMILES. ≈ marks a conversion by molar mass, not a printed value. Where a name gives a salt, the structure may show the parent alone. Where only a bound is given, the exact number is not on record here.

As for `Cc1c(CNCCCNc2cc(=O)c3ccccc3[nH]2)sc(Br)c1Br` [Example 1, N-(4,5-Dibromo-3-methylthiophen-2-ylmethyl)-N′-(1H-quinolin-4-one)propane-1,3-diamine], the MIC was 0.25 µg/mL (≈ 0.515 µM) against S. aureus, 32 µg/mL (≈ 65.9 µM) in the test on H. influenzae, 0.06 to 0.5 µg/mL (≈ 0.124 to 1.03 µM) in test [1] and 0.06 µg/mL (≈ 0.124 µM) with S. pneumo.

Take `C#Cc1sc(CNCCCNc2cc(=O)c3ccccc3[nH]2)c(C)c1Br` [Example 2, N-(4-bromo-5-ethynyl-3-methylthiophen-2-ylmethyl)-N′-(1H-quinolin-4-one)propane-1,3-diamine]: the MIC in the test with S. aureus is 0.13 µg/mL (≈ 0.302 µM); with H. influenzae it was above 64 µg/mL; in test [1], 0.06 to 0.5 µg/mL (≈ 0.139 to 1.16 µM); against S. pneumo, 0.06 µg/mL (≈ 0.139 µM).

As to `C=Cc1sc(CNCCCNc2cc(=O)c3ccccc3[nH]2)c(C)c1Br` [Example 3, N-(4-bromo-3-methyl-5-vinylthiophen-2-ylmethyl)-N′-(1H-quinolin-4-one)propane-1,3-diamine], the MIC in the test on S. aureus was 0.06 µg/mL (≈ 0.139 µM); against H. influenzae it was 16 µg/mL (≈ 37 µM); in test [1], 0.06 to 0.5 µg/mL (≈ 0.139 to 1.16 µM); in the test with S. pneumo, 0.06 µg/mL (≈ 0.139 µM).

For the molecule `C=C(F)c1sc(CNCCCNc2cc(=O)c3ccccc3[nH]2)c(C)c1Br` [Example 4, N-(4-bromo-5-(1-fluorovinyl)-3-methylthiophen-2-ylmethyl)-N′-(1H-quinolin-4-one)propane-1,3-diamine], the MIC was 0.06 µg/mL (≈ 0.133 µM) with S. aureus; 4 µg/mL (≈ 8.88 µM) in the test on H. influenzae; 0.13 to 8 µg/mL (≈ 0.289 to 17.8 µM) in test [2]; 0.06 to 0.5 µg/mL (≈ 0.133 to 1.11 µM) in test [1]; 0.06 µg/mL (≈ 0.133 µM) against S. pneumo.

`CCc1sc(CNCCCNc2cc(=O)c3ccccc3[nH]2)c(C)c1Br` [Example 5, N-(4-bromo-5-ethyl-3-methylthiophen-2-ylmethyl)-N′-(1H-quinolin-4-one)propane-1,3-diamine]: the MIC is 0.06 µg/mL (≈ 0.138 µM) in the test with S. aureus, 64 µg/mL (≈ 147 µM) in the test on H. influenzae, 0.06 to 0.5 µg/mL (≈ 0.138 to 1.15 µM) in test [1] and 0.25 µg/mL (≈ 0.576 µM) in the test on S. pneumo.

As for `Cc1c(CNCCCNc2cc(=O)c3ccccc3[nH]2)sc(C2CC2)c1Br` [Example 6, N-(4-bromo-5-cyclopropyl-3-methylthiophen-2-ylmethyl)-N′-(1H-quinolin-4-one)propane-1,3-diamine], the MIC in the test on S. aureus is 0.06 µg/mL (≈ 0.134 µM); with H. influenzae, 32 µg/mL (≈ 71.7 µM); in test [1], 0.06 to 0.5 µg/mL (≈ 0.134 to 1.12 µM); against S. pneumo it was 0.13 µg/mL (≈ 0.291 µM).

With `Cc1c(CNCCCNc2cc(=O)c3ccccc3[nH]2)sc(C(F)F)c1Br` [Example 7, N-(4-bromo-5-difluoromethyl-3-methylthiophen-2-ylmethyl)-N′-(1H-quinolin-4-one)propane-1,3-diamine], the MIC against S. aureus was 1 µg/mL (≈ 2.19 µM); against H. influenzae, 64 µg/mL (≈ 140 µM); in test [1], 1 to 2 µg/mL (≈ 2.19 to 4.38 µM); with S. pneumo it was 1 µg/mL (≈ 2.19 µM).

As to `Cc1c(CNCCCNc2cc(=O)c3ccccc3[nH]2)sc(C(F)(F)F)c1Br` [Example 8, N-(4-bromo-3-methyl-5-trifluoromethylthiophen-2-ylmethyl)-N′-(1H-quinolin-4-one)propane-1,3-diamine], the MIC against S. aureus was 0.13 µg/mL (≈ 0.274 µM); with H. influenzae it was 64 µg/mL (≈ 135 µM); in test [1], 0.06 to 0.5 µg/mL (≈ 0.126 to 1.05 µM); against S. pneumo it was 0.13 µg/mL (≈ 0.274 µM).

For the molecule `CC#Cc1c(CNCCCNc2cc(=O)c3ccccc3[nH]2)sc(CC)c1Br` [Example 9, N-(4-bromo-3-(1-propynyl)-5-ethylthiophen-2-ylmethyl)-N′-(1H-quinolin-4-one)propane-1,3-diamine], the MIC against S. aureus is 0.06 µg/mL (≈ 0.131 µM); against H. influenzae, 64 µg/mL (≈ 140 µM); in test [1] it was 0.06 to 0.5 µg/mL (≈ 0.131 to 1.09 µM); with S. pneumo, 0.06 µg/mL (≈ 0.131 µM).

As for `CC=Cc1c(CNCCCNc2cc(=O)c3ccccc3[nH]2)sc(CC)c1Br` [Example 10, N-(4-bromo-3-(1-propenyl)-5-ethylthiophen-2-ylmethyl)-N′-(1H-quinolin-4-one)propane-1,3-diamine], the MIC with S. aureus was 0.06 µg/mL (≈ 0.13 µM); against H. influenzae it was 8 µg/mL (≈ 17.4 µM); in test [2], 0.13 to 8 µg/mL (≈ 0.282 to 17.4 µM); in test [1], 0.06 to 0.5 µg/mL (≈ 0.13 to 1.09 µM); against S. pneumo, 0.25 µg/mL (≈ 0.543 µM).

On to `Cc1c(CNCCCNc2nc3nnccc3[nH]2)sc(C2CC2)c1Br` [Example 11, N-(4-Bromo-5-cyclopropyl-3-methylthiophen-2-ylmethyl)-N′-(5H-imidazo[4,5-c]pyridazin-6-yl)propane-1,3-diamine dihydrochloride], for which the MIC was 2 µg/mL against S. aureus; 2 µg/mL in the test on H. influenzae; 0.13 to 8 µg/mL in test [2]; 1 to 2 µg/mL in test [1]; 8 µg/mL with S. pneumo.

For `Cc1c(CNCCCNc2nc3nnccc3[nH]2)sc(C(F)(F)F)c1Br` [Example 12, N-(4-bromo-3-methyl-5-trifluoromethylthiophen-2-ylmethyl)-N′-(5H-imidazo[4,5-c]pyridazin-6-yl)propane-1,3-diamine dihydrochloride], the MIC with S. aureus was 0.5 µg/mL; against H. influenzae, 0.25 µg/mL; in test [2], 0.13 to 8 µg/mL; in test [1], 0.06 to 0.5 µg/mL; against S. pneumo, 2 µg/mL.

Consider `C=Cc1sc(CNCCCNc2nc3nnccc3[nH]2)c(C)c1Br` [Example 13, N-(4-bromo-3-methyl-5-vinylthiophen-2-ylmethyl)-N′-(5H-imidazo[4,5-c]pyridazin-6-yl)propane-1,3-diamine dihydrochloride], for which the MIC in the test with S. aureus was 0.5 µg/mL; in the test on H. influenzae, 2 µg/mL; in test [2] it was 0.13 to 8 µg/mL; in test [1], 0.06 to 0.5 µg/mL; with S. pneumo, 2 µg/mL.

With `C=C(F)c1sc(CNCCCNc2nc3nnccc3[nH]2)c(C)c1Br` [Example 14, N-(4-bromo-5-(1-fluorovinyl)-3-methylthiophen-2-ylmethyl)-N′-(5H-imidazo[4,5-c]pyridazin-6-yl)propane-1,3-diamine dihydrochloride], the MIC is 0.25 µg/mL against S. aureus; 0.13 µg/mL in the test on H. influenzae; 0.13 to 8 µg/mL in test [2]; 0.06 to 0.5 µg/mL in test [1]; 0.25 µg/mL in the test on S. pneumo.

Take `C#Cc1sc(CNCCCNc2nc3nnccc3[nH]2)c(C)c1Br` [Example 15, N-(4-bromo-5-ethynyl-3-methylthiophen-2-ylmethyl)-N′-(5H-imidazo[4,5-c]pyridazin-6-yl)propane-1,3-diamine dihydrochloride]: the MIC against S. aureus is 1 µg/mL; in the test on H. influenzae, 0.5 µg/mL; in test [2], 0.13 to 8 µg/mL; in test [1], 1 to 2 µg/mL; against S. pneumo it was 0.5 µg/mL.

With `Cc1c(CNCCCNc2nc3ncccc3[nH]2)sc(C(F)F)c1Br` [Example 16, N-(4-bromo-5-difluoromethyl-3-methylthiophen-2-ylmethyl)-N′-(1H-imidazo[4,5-b]pyridin-2-yl)-propane-1,3-diamine], the MIC against S. aureus was 0.5 µg/mL (≈ 1.16 µM); in the test on H. influenzae, 64 µg/mL (≈ 149 µM); in test [1], 0.06 to 0.5 µg/mL (≈ 0.139 to 1.16 µM); in the test with S. pneumo it was 4 µg/mL (≈ 9.3 µM).

Regarding `Cc1c(CNCCCNc2nc3cscc3[nH]2)sc(C(F)F)c1Br` [Example 19, N-(4-Bromo-5-difluoromethyl-3-methylthiophen-2-ylmethyl)-N′-(1H-thieno[3,4-d]imidazol-2-yl)propane-1,3-diamine], the MIC is 0.13 µg/mL (≈ 0.299 µM) in the test with S. aureus, 16 µg/mL (≈ 36.8 µM) against H. influenzae, 0.06 to 0.5 µg/mL (≈ 0.138 to 1.15 µM) in test [1] and 0.5 µg/mL (≈ 1.15 µM) against S. pneumo.

`Cc1c(CNCCCNc2nc3cscc3[nH]2)sc(C(F)(F)F)c1Br` [Example 20, N-(4-Bromo-3-methyl-5-trifluoromethylthiophen-2-ylmethyl)-N′-(1H-thieno[3,4-d]imidazol-2-yl)propane-1,3-diamine]: the MIC against S. aureus is 0.25 µg/mL (≈ 0.551 µM); against H. influenzae, 16 µg/mL (≈ 35.3 µM); in test [1], 0.06 to 0.5 µg/mL (≈ 0.132 to 1.1 µM); with S. pneumo, 0.5 µg/mL (≈ 1.1 µM).

`Cc1c(CNCCCNc2nc3ccccc3[nH]2)sc(C(F)F)c1Br` [Example 23, N-(4-bromo-5-difluoromethyl-3-methylthiophen-2-ylmethyl)-N′-(1H-benzimidazole)propane-1,3-diamine]: the MIC against S. aureus is 1 µg/mL (≈ 2.33 µM); against H. influenzae, 8 µg/mL (≈ 18.6 µM); in test [2], 0.13 to 8 µg/mL (≈ 0.303 to 18.6 µM); in test [1], 1 to 2 µg/mL (≈ 2.33 to 4.66 µM); against S. pneumo, 4 µg/mL (≈ 9.32 µM).

For the molecule `Cc1c(CNCCCNc2nc3ccccc3[nH]2)sc(C(F)(F)F)c1Br` [Example 24, N-(4-bromo-3-methyl-5-trifluoromethylthiophen-2-ylmethyl)-N′-(1H-benzimidazole)propane-1,3-diamine], the MIC is 0.5 µg/mL (≈ 1.12 µM) with S. aureus; 8 µg/mL (≈ 17.9 µM) in the test with H. influenzae; 0.13 to 8 µg/mL (≈ 0.291 to 17.9 µM) in test [2]; 0.06 to 0.5 µg/mL (≈ 0.134 to 1.12 µM) in test [1]; 1 µg/mL (≈ 2.24 µM) with S. pneumo.

Take `O=c1cc(NCCCNCc2cc(Br)c(Br)s2)[nH]c2ccccc12` [Example 37]: the MIC in the test on S. aureus (setting [3]) was 8 µg/mL (≈ 17 µM); with H. influenzae (setting [3]), above 64 µg/mL; against S. pneumo (setting [3]), 1 µg/mL (≈ 2.12 µM).

`O=c1cc(NCCCNCc2sc(Br)c(Br)c2Br)[nH]c2ccccc12` [Example 65]: the figures for the MIC against S. aureus (setting [3]), against H. influenzae (setting [3]) and in the test with S. pneumo (setting [3]) were 2 µg/mL (≈ 3.64 µM), above 64 µg/mL and 1 µg/mL (≈ 1.82 µM), respectively.

For `O=c1cc(NC[C@H]2CCC[C@@H]2NCc2cc(Br)c(Br)s2)[nH]c2ccccc12` [Example 74], the values for the MIC with S. aureus (setting [3]), in the test on H. influenzae (setting [3]) and in the test on S. pneumo (setting [3]) were 2 µg/mL (≈ 3.91 µM), above 64 µg/mL and 2 µg/mL (≈ 3.91 µM), respectively.

The values above are taken from patent US7030137B2, “Substituted thiophenes with antibacterial activity” (Replidyne, Inc., priority 2003, dated 2006).
